From patent US20210353593A1 (Chinook Therapeutics, Inc., priority 2019, published 2021)
Entries after “also recorded” stand apart in the source; their conditions may differ.

Assays:
[1] = tested on: primary human renal mesangial cells (HRMCs); test: Proliferation (BrdU) of primary human renal mesangial cells stimulated with IgA-containing immune complexes; assay type: cell-based
Text: Primary human mesangial cells in a culture were stimulated with pathogenic galactose deficient (Gd)-IgA containing immune complexes isolated from human IgA nephropathy patients.
Specifically, pathogenic IgA-containing immune complexes were isolated from serum from either IgA nephropathy patients or age, gender and ethnicity-matched healthy individuals. Frozen serum was purchased from BioIVT and IgA-containing immune complexes were purified using jacalin affinity chromatography. […] Purified IgA-containing immune complexes were concentrated using a 100K Amicon filtration unit and the amount of total IgA and galactose-deficient IgA (Gd-IgA) in the immune complexes was measured by ELISA (ThermoFisher and IBL America, respectively). […] See, e.g., Novak et. al., Kidney International, 67, pp. 504-516; 2005; Novak et. al., Nephrol. Dial. Transplant, 26, pp. 3451-3457; 2011; Liang et. al., Cell Physiol. Biochem., 36, pp. 1793-1808; 2015; Nguyen et. al., Clin. Kidney 1, 12 (2), pp, 232-238; 2019.

[2] = tested on: hallmark gene sets in kidney tissue of g-ddY mice; test: Gene Set Enrichment Analysis (GSEA) of hallmark gene sets, g-ddY mouse kidney RNA-seq; assay type: in vivo

CCCCN(CCCC)C(=O)CN1C[C@H](c2ccc3c(c2)OCO3)[C@@H](C(=O)O)[C@@H]1c1ccc(OC)cc1 [Atrasentan, (2R,3R,4S)-4-(1,3-benzodioxol-5-yl)-1-[2-(dibutylamino)-2-oxoethyl]-2-(4-methoxyphenyl)pyrrolidine-3-carboxylic acid]
basal cell proliferation in HRMCs ([1]; IgA containing serum fractions from healthy controls): no effect
proliferation of HRMCs induced by IgA containing immune complexes from patients with IgA nephropathy ([1]; immune complexes from three separate IgAN patients, BrdU): reduces the proliferation; also recorded: significantly attenuated the hyperproliferation
HALLMARK_ADIPOGENESIS NES ([2]; 10 mg/kg/day vs. control): 2.15
HALLMARK_ALLOGRAFT_REJECTION NES ([2]; 10 mg/kg/day vs. control): −2.25
HALLMARK_ANDROGEN_RESPONSE NES ([2]; 10 mg/kg/day vs. control): 0.88
HALLMARK_ANGIOGENESIS NES ([2]; 10 mg/kg/day vs. control): −1.94
HALLMARK_APICAL_JUNCTION NES ([2]; 10 mg/kg/day vs. control): −1.79
HALLMARK_APICAL_SURFACE NES ([2]; 10 mg/kg/day vs. control): −1.52
HALLMARK_APOPTOSIS NES ([2]; 10 mg/kg/day vs. control): −1.59
HALLMARK_BILE_ACID_METABOLISM NES ([2]; 10 mg/kg/day vs. control): 2.08
HALLMARK_CHOLESTEROL_HOMEOSTASIS NES ([2]; 10 mg/kg/day vs. control): 1.03
HALLMARK_COAGULATION NES ([2]; 10 mg/kg/day vs. control): −1.53
HALLMARK_COMPLEMENT NES ([2]; 10 mg/kg/day vs. control): −1.51
HALLMARK_DNA_REPAIR NES ([2]; 10 mg/kg/day vs. control): 0.79
HALLMARK_E2F_TARGETS NES ([2]; 10 mg/kg/day vs. control): −2.07
HALLMARK_EPITHELIAL_MESENCHYMAL_TRANSITION NES ([2]; 10 mg/kg/day vs. control): −2.47
HALLMARK_ESTROGEN_RESPONSE_EARLY NES ([2]; 10 mg/kg/day vs. control): −1.27
HALLMARK_ESTROGEN_RESPONSE_LATE NES ([2]; 10 mg/kg/day vs. control): −1.18
HALLMARK_FATTY_ACID_METABOLISM NES ([2]; 10 mg/kg/day vs. control): 2.25
HALLMARK_G2M_CHECKPOINT NES ([2]; 10 mg/kg/day vs. control): −2.15
HALLMARK_GLYCOLYSIS NES ([2]; 10 mg/kg/day vs. control): 1.62
HALLMARK_HEDGEHOG_SIGNALING NES ([2]; 10 mg/kg/day vs. control): −1.51
HALLMARK_HEME_METABOLISM NES ([2]; 10 mg/kg/day vs. control): 1.57
HALLMARK_HYPOXIA NES ([2]; 10 mg/kg/day vs. control): −1.38
HALLMARK_IL2_STAT5_SIGNALING NES ([2]; 10 mg/kg/day vs. control): −1.77
HALLMARK_IL6_JAK_STAT3_SIGNALING NES ([2]; 10 mg/kg/day vs. control): −2.34
HALLMARK_INFLAMMATORY_RESPONSE NES ([2]; 10 mg/kg/day vs. control): −2.34
HALLMARK_INTERFERON_ALPHA_RESPONSE NES ([2]; 10 mg/kg/day vs. control): −1.96
HALLMARK_INTERFERON_GAMMA_RESPONSE NES ([2]; 10 mg/kg/day vs. control): −2.26
HALLMARK_KRAS_SIGNALING_DN NES ([2]; 10 mg/kg/day vs. control): 1.28
HALLMARK_KRAS_SIGNALING_UP NES ([2]; 10 mg/kg/day vs. control): −2.24
HALLMARK_M ITOTIC_SPINDLE NES ([2]; 10 mg/kg/day vs. control): −1.55
HALLMARK_MTORC1_SIGNALING NES ([2]; 10 mg/kg/day vs. control): 1.11
HALLMARK_MYC_TARGETS_V1 NES ([2]; 10 mg/kg/day vs. control): −1.17
HALLMARK_MYC_TARGETS_V2 NES ([2]; 10 mg/kg/day vs. control): −0.780
HALLMARK_MYOGENESIS NES ([2]; 10 mg/kg/day vs. control): −1.19
HALLMARK_NOTCH_SIGNALING NES ([2]; 10 mg/kg/day vs. control): 0.83
HALLMARK_OXIDATIVE_PHOSPHORYLATION NES ([2]; 10 mg/kg/day vs. control): 3.06
HALLMARK_P53_PATHWAY NES ([2]; 10 mg/kg/day vs. control): −1.12
HALLMARK_PANCREAS_BETA_CELLS NES ([2]; 10 mg/kg/day vs. control): 0.85
HALLMARK_PEROXISOME NES ([2]; 10 mg/kg/day vs. control): 1.68
HALLMARK_PI3K_AKT_MTOR SIGNALING NES ([2]; 10 mg/kg/day vs. control): −0.92
HALLMARK_PROTEIN_SECRETION NES ([2]; 10 mg/kg/day vs. control): 1.06
HALLMARK_REACTIVE_OXYGEN_SPECIES_PATHWAY NES ([2]; 10 mg/kg/day vs. control): 1.59
HALLMARK_SPERMATOGENESIS NES ([2]; 10 mg/kg/day vs. control): 0.89
HALLMARK_TGF_BETA_SIGNALING NES ([2]; 10 mg/kg/day vs. control): −1.72
HALLMARK_TNFA_SIGNALING_VIA_NFKB NES ([2]; 10 mg/kg/day vs. control): −2.55
HALLMARK_UNFOLDED_PROTEIN_RESPONSE NES ([2]; 10 mg/kg/day vs. control): −0.91
HALLMARK_UV_RESPONSE_DN NES ([2]; 10 mg/kg/day vs. control): −2.19
HALLMARK_UV_RESPONSE_UP NES ([2]; 10 mg/kg/day vs. control): 1.28
HALLMARK_WNT_BETA_CATENIN_SIGNALING NES ([2]; 10 mg/kg/day vs. control): −1.02
HALLMARK_XENOBIOTIC_METABOLISM NES ([2]; 10 mg/kg/day vs. control): 1.95
HALLMARK_ADIPOGENESIS NES ([2]; 20 mg/kg/day vs. control): 2.26
HALLMARK_ALLOGRAFT_REJECTION NES ([2]; 20 mg/kg/day vs. control): −2.90
HALLMARK_ANDROGEN_RESPONSE NES ([2]; 20 mg/kg/day vs. control): 1.03
HALLMARK_ANGIOGENESIS NES ([2]; 20 mg/kg/day vs. control): −2.19
HALLMARK_APICAL_JUNCTION NES ([2]; 20 mg/kg/day vs. control): −2.24
HALLMARK_APICAL_SURFACE NES ([2]; 20 mg/kg/day vs. control): −1.67
HALLMARK_APOPTOSIS NES ([2]; 20 mg/kg/day vs. control): −2.17
HALLMARK_BILE_ACID_METABOLISM NES ([2]; 20 mg/kg/day vs. control): 2.39
HALLMARK_CHOLESTEROL_HOMEOSTASIS NES ([2]; 20 mg/kg/day vs. control): −1.03
HALLMARK_COAGULATION NES ([2]; 20 mg/kg/day vs. control): −2.11
HALLMARK_COMPLEMENT NES ([2]; 20 mg/kg/day vs. control): −2.01
HALLMARK_DNA_REPAIR NES ([2]; 20 mg/kg/day vs. control): 0.83
HALLMARK_E2F_TARGETS NES ([2]; 20 mg/kg/day vs. control): −2.34
HALLMARK_EPITHELIAL_MESENCHYMAL_TRANSITION NES ([2]; 20 mg/kg/day vs. control): −2.92
HALLMARK_ESTROGEN_RESPONSE_EARLY NES ([2]; 20 mg/kg/day vs. control): −1.52
HALLMARK_ESTROGEN_RESPONSE_LATE NES ([2]; 20 mg/kg/day vs. control): −1.37
HALLMARK_FATTY_ACID_METABOLISM NES ([2]; 20 mg/kg/day vs. control): 2.51
HALLMARK_G2M_CHECKPOINT NES ([2]; 20 mg/kg/day vs. control): −2.26
HALLMARK_GLYCOLYSIS NES ([2]; 20 mg/kg/day vs. control): 1.53
HALLMARK_HEDGEHOG_SIGNALING NES ([2]; 20 mg/kg/day vs. control): −1.72
HALLMARK_HEME_METABOLISM NES ([2]; 20 mg/kg/day vs. control): 1.92
HALLMARK_HYPOXIA NES ([2]; 20 mg/kg/day vs. control): −1.62
HALLMARK_IL2_STAT5_SIGNALING NES ([2]; 20 mg/kg/day vs. control): −2.20
HALLMARK_IL6_JAK_STAT3_SIGNALING NES ([2]; 20 mg/kg/day vs. control): −2.92
HALLMARK_INFLAMMATORY_RESPONSE NES ([2]; 20 mg/kg/day vs. control): −2.96
